{"source": "ChEMBL document CHEMBL5390254", "about": "“Discovery and Optimization of Novel hDHODH Inhibitors for the Treatment of Inflammatory Bowel Disease” (J Med Chem, 2023)", "key": {"[1]": {"assay": "Metabolic stability in rat liver microsomes assessed as half life at 3 uM incubated upto 90 mins in presence of NADPH by LC-MS/MS analysis", "assay_type": "ADME, Microsome"}, "[2]": {"assay": "Metabolic stability in mouse liver microsomes assessed as half life at 3 uM incubated upto 90 mins in presence of NADPH by LC-MS/MS analysis", "assay_type": "ADME, Microsome"}, "[3]": {"assay": "Metabolic stability in mouse liver microsomes assessed as intrinsic clearance at 3 uM incubated upto 90 mins in presence of NADPH by LC-MS/MS analysis", "assay_type": "ADME, Microsome", "conditions": "read-out: CLH"}, "[4]": {"assay": "1-octanol/water partition coefficient, logP of the compound at 2 mg by UPLC analysis", "assay_type": "physicochemical"}, "[5]": {"assay": "Acute toxicity in BALB/c mouse assessed as changes in hemoglobin level in blood at 600 mg/kg,po and measured after 14 days by hematology test", "assay_type": "organism-based", "conditions": "in vivo, 336 h, time 14 day"}, "[6]": {"assay": "Acute toxicity in BALB/c mouse assessed as changes in WBC level in blood at 600 mg/kg,po and measured after 14 days by hematology test", "assay_type": "organism-based", "conditions": "in vivo, 336 h, time 14 day"}, "[7]": {"assay": "Acute toxicity in BALB/c mouse assessed as changes in lymph level in blood at 600 mg/kg,po and measured after 14 days by hematology test", "assay_type": "organism-based", "conditions": "in vivo, 336 h, time 14 day"}, "[8]": {"assay": "Acute toxicity in BALB/c mouse assessed as changes in CK level in serum at 600 mg/kg,po and measured after 14 days by Biochemistry analysis", "assay_type": "organism-based", "conditions": "in vivo, 336 h, time 14 day"}, "[9]": {"assay": "Acute toxicity in BALB/c mouse assessed as changes in LDH level in serum at 600 mg/kg,po and measured after 14 days by Biochemistry analysis", "assay_type": "organism-based", "conditions": "in vivo, 336 h, time 14 day"}, "[10]": {"assay": "Acute toxicity in BALB/c mouse assessed as changes in ALP level in serum at 600 mg/kg,po and measured after 14 days by Biochemistry analysis", "assay_type": "organism-based", "conditions": "in vivo, 336 h, time 14 day"}, "[11]": {"assay": "Acute toxicity in BALB/c mouse assessed as changes in AST level in serum at 600 mg/kg,po and measured after 14 days by Biochemistry analysis", "assay_type": "organism-based", "conditions": "in vivo, 336 h, time 14 day"}, "[12]": {"assay": "Acute toxicity in BALB/c mouse assessed as changes in ALB level in serum at 600 mg/kg,po and measured after 14 days by Biochemistry analysis", "assay_type": "organism-based", "conditions": "in vivo, 336 h, time 14 day"}, "[13]": {"assay": "Acute toxicity in BALB/c mouse assessed as changes in CREA level in serum at 600 mg/kg,po and measured after 14 days by Biochemistry analysis", "assay_type": "organism-based", "conditions": "in vivo, 336 h, time 14 day"}, "[14]": {"assay": "Acute toxicity in BALB/c mouse assessed as tissue damage in heart at 600 mg/kg,po and measured after 14 days by hematoxylin and eosin staining based microscopy", "assay_type": "organism-based", "conditions": "in vivo, 336 h, time 14 day"}, "[15]": {"assay": "Acute toxicity in BALB/c mouse assessed as tissue damage in lung at 600 mg/kg,po and measured after 14 days by hematoxylin and eosin staining based microscopy", "assay_type": "organism-based", "conditions": "in vivo, 336 h, time 14 day"}, "Mus musculus [16]": {"test_system": "Mus musculus", "assay": "Anti-inflammatory activity against DSS-induced acute ulcerative colitis in C57BL/6 mouse model assessed as decrease in body weight loss at 40 mg/kg, po QD for 6 days (Rvb= 25.6%)", "assay_type": "functional", "set-up": "scale not given: the % may be the effect or the level left", "conditions": "time 6 day"}, "Mus musculus [17]": {"test_system": "Mus musculus", "assay": "Anti-inflammatory activity against DSS-induced acute ulcerative colitis in C57BL/6 mouse model assessed as decrease in colon length shortening at 40 mg/kg, po QD for 6 days (Rvb= 5.5cm)", "assay_type": "functional", "conditions": "time 6 day"}, "Mus musculus [18]": {"test_system": "Mus musculus", "assay": "Anti-inflammatory activity against DSS-induced acute ulcerative colitis in C57BL/6 mouse model assessed as decrease in IL-6 mRNA expression level in colon at 40 mg/kg, po QD for 6 days by RT-PCR analysis", "assay_type": "functional, organism-based", "conditions": "time 6.0 day"}, "Mus musculus [19]": {"test_system": "Mus musculus", "assay": "Anti-inflammatory activity against DSS-induced acute ulcerative colitis in C57BL/6 mouse model assessed as decrease in IL-17 mRNA expression level in colon at 40 mg/kg, po QD for 6 days by RT-PCR analysis", "assay_type": "functional, organism-based", "conditions": "time 6.0 day"}, "Mus musculus [20]": {"test_system": "Mus musculus", "assay": "Anti-inflammatory activity against DSS-induced acute ulcerative colitis in C57BL/6 mouse model assessed as decrease in IL-1beta mRNA expression level in colon at 40 mg/kg, po QD for 6 days by RT-PCR analysis", "assay_type": "functional, organism-based", "conditions": "time 6.0 day"}, "Mus musculus [21]": {"test_system": "Mus musculus", "assay": "Anti-inflammatory activity against DSS-induced acute ulcerative colitis in C57BL/6 mouse model assessed as decrease in IL-6 production in colon at 40 mg/kg, po QD for 6 days by ELISA", "assay_type": "functional", "set-up": "scale not given: the % may be the effect or the level left", "conditions": "time 6 day"}, "Mus musculus [22]": {"test_system": "Mus musculus", "assay": "Anti-inflammatory activity against DSS-induced acute ulcerative colitis in C57BL/6 mouse model assessed as decrease in IL-17 production in colon at 40 mg/kg, po QD for 6 days by ELISA", "assay_type": "functional", "set-up": "scale not given: the % may be the effect or the level left", "conditions": "time 6 day"}, "Mus musculus [23]": {"test_system": "Mus musculus", "assay": "Anti-inflammatory activity against DSS-induced acute ulcerative colitis in C57BL/6 mouse model assessed as decrease in IL-1beta production in colon at 40 mg/kg, po QD for 6 days by ELISA", "assay_type": "functional", "set-up": "scale not given: the % may be the effect or the level left", "conditions": "time 6 day"}, "[24]": {"assay": "Drug distribution in colon of DSS-induced acute ulcerative colitis in C57BL/6 mouse model at 40 mg/kg,po and measured after 0.5 hrs by LC-MS/MS analysis", "assay_type": "ADME, organism-based", "conditions": "in vivo"}, "[25]": {"assay": "Drug distribution in colon of DSS-induced acute ulcerative colitis in C57BL/6 mouse model at 40 mg/kg,po and measured after 2 hrs by LC-MS/MS analysis", "assay_type": "ADME, organism-based", "conditions": "in vivo"}, "[26]": {"assay": "Half life in Sprague-Dawley rat at 5 mg/kg, iv and measured upto 48 hrs by LC-MS/MS analysis", "assay_type": "ADME, organism-based", "conditions": "in vivo"}, "[27]": {"assay": "Half life in Sprague-Dawley rat at 15 mg/kg, po and measured upto 48 hrs by LC-MS/MS analysis", "assay_type": "ADME, organism-based", "conditions": "in vivo"}, "[28]": {"assay": "Cmax in Sprague-Dawley rat at 15 mg/kg, po and measured upto 48 hrs by LC-MS/MS analysis", "assay_type": "ADME, organism-based", "set-up": "dose 15 mg/kg, time < 48 hrs, route po", "conditions": "in vivo"}, "Mus musculus [29]": {"test_system": "Mus musculus", "assay": "Anti-inflammatory activity against DSS-induced acute ulcerative colitis in C57BL/6 mouse model assessed as decrease in body weight loss at 20 mg/kg, po QD for 6 days (Rvb= -13.4%)", "assay_type": "functional", "set-up": "scale not given: the % may be the effect or the level left", "conditions": "time 6 day"}, "Mus musculus [30]": {"test_system": "Mus musculus", "assay": "Anti-inflammatory activity against DSS-induced acute ulcerative colitis in C57BL/6 mouse model assessed as decrease in body weight loss at 40 mg/kg, po QD for 6 days (Rvb= -13.4%)", "assay_type": "functional", "set-up": "scale not given: the % may be the effect or the level left", "conditions": "time 6 day"}, "Mus musculus [31]": {"test_system": "Mus musculus", "assay": "Anti-inflammatory activity against DSS-induced acute ulcerative colitis in C57BL/6 mouse model assessed as increase in colon length at 40 mg/kg, po QD for 6 days (Rvb= 5.3cm)", "assay_type": "functional", "conditions": "time 6 day"}, "Mus musculus [32]": {"test_system": "Mus musculus", "assay": "Anti-inflammatory activity against DSS-induced acute ulcerative colitis in C57BL/6 mouse model assessed as decrease in IL-6 mRNA expression level in colon at 20 to 80 mg/kg, po QD for 6 days by RT-qPCR analysis", "assay_type": "functional, organism-based", "conditions": "dose 20-80 mg/kg, time 6.0 day"}, "Mus musculus [33]": {"test_system": "Mus musculus", "assay": "Anti-inflammatory activity against DSS-induced acute ulcerative colitis in C57BL/6 mouse model assessed as decrease in IL-1beta mRNA expression level in colon at 20 to 80 mg/kg, po QD for 6 days by RT-qPCR analysis", "assay_type": "functional, organism-based", "conditions": "dose 20-80 mg/kg, time 6.0 day"}}, "note": "Activity calls are given as the source filed them. No cut-off for these calls is given here.", "data": [{"smiles": "Nc1nc(-c2cn(Cc3c(F)cccc3Cl)c3ncccc23)ncc1C1CC1", "values": [{"measurement": "half-life at 3 µM", "setting": "[1]", "result": 7.8, "unit": "min"}, {"measurement": "half-life at 3 µM", "setting": "[2]", "result": 9.4, "unit": "min"}, {"measurement": "CLint scaled at 3 µM", "setting": "[3]", "result": 581, "unit": "mL/min/kg"}, {"measurement": "logP", "setting": "[4]", "result": 5.3}, {"measurement": "Activity", "setting": "[5]", "result": "Non-Toxic"}, {"measurement": "Activity", "setting": "[6]", "result": "Non-Toxic"}, {"measurement": "Activity", "setting": "[7]", "result": "Non-Toxic"}, {"measurement": "Activity", "setting": "[8]", "result": "Non-Toxic"}, {"measurement": "Activity", "setting": "[9]", "result": "Non-Toxic"}, {"measurement": "Activity", "setting": "[10]", "result": "Non-Toxic"}, {"measurement": "Activity", "setting": "[11]", "result": "Non-Toxic"}, {"measurement": "Activity", "setting": "[12]", "result": "Non-Toxic"}, {"measurement": "Activity", "setting": "[13]", "result": "Non-Toxic"}, {"measurement": "Activity", "setting": "[14]", "result": "Non-Toxic"}, {"measurement": "Activity", "setting": "[15]", "result": "Non-Toxic"}, {"measurement": "Activity", "setting": "Mus musculus [16]", "result": 7.4, "unit": "%"}, {"measurement": "Activity", "setting": "Mus musculus [17]", "result": 7, "unit": "cm"}, {"measurement": "Activity", "setting": "Mus musculus [18]", "result": "Active"}, {"measurement": "Activity", "setting": "Mus musculus [19]", "result": "Active"}, {"measurement": "Activity", "setting": "Mus musculus [20]", "result": "Active"}, {"measurement": "Activity", "setting": "Mus musculus [21]", "result": 77.73, "unit": "%"}, {"measurement": "Activity", "setting": "Mus musculus [22]", "result": 57.35, "unit": "%"}, {"measurement": "Activity", "setting": "Mus musculus [23]", "result": 84.32, "unit": "%"}, {"measurement": "Drug uptake", "setting": "[24]", "result": "Active"}, {"measurement": "Drug uptake", "setting": "[25]", "result": "Active"}, {"measurement": "half-life", "setting": "[26]", "result": 156, "unit": "min"}, {"measurement": "half-life", "setting": "[27]", "result": 96, "unit": "min"}, {"measurement": "Cmax", "setting": "[28]", "result": 2680, "unit": "ng/mL"}, {"measurement": "Activity", "setting": "Mus musculus [29]", "result": -5.1, "unit": "%"}, {"measurement": "Activity", "setting": "Mus musculus [30]", "result": -4.2, "unit": "%"}, {"measurement": "Activity", "setting": "Mus musculus [31]", "result": 6.7, "unit": "cm"}, {"measurement": "Activity", "setting": "Mus musculus [32]", "result": "Dose-Dependent Effect"}, {"measurement": "Activity", "setting": "Mus musculus [33]", "result": "Dose-Dependent Effect"}]}]}
